Measured values reported in paper PMC7018034, “Antimicrobial activity of Ib-M peptides against Escherichia coli O157: H7” (PLoS ONE, 2020).
≈ marks a conversion by molar mass, not a printed value. Where “and” joins values, the source holds several entries; their conditions need not be identical. Equal entries are not always repeated. Ends that are not written are not given here.

Experiments:
[1] = tested on: E. coli O157: H7 (ATCC 43888); assay: microbe, parasite or virus in culture; format: cell-based, Escherichia coli O157: H7; details: for SI (selectivity index) E. coli O157: H7 ATCC 43888: ratio CC50 in VERO cells / MIC in ATCC 43888, maximum evaluated concentration used where CC50 not determined
Experimental: (§1) MIC was determined using the microdilution method as described in protocol M07-A9 of the Clinical and Laboratory Standards Institute. Briefly, 1:2 serial dilutions of Ib-M peptides in MHB were placed in a 96-well round-bottom plate at concentrations ranging from 100 to 0.05 μM; or reference antibiotics STP and GNT between 200 to 0.1 μM. The bacterial inoculum was prepared from a subculture of E. coli O157: H7 (ATCC 43888 or AC188) in LBB incubated for 18–24 hours at 35 ± 2°C before to the test. The bacteria suspension was diluted to 1x10^8 colony forming units (CFU)/mL, to obtain a turbidity equivalent to 0.5 on the McFarland scale, confirmed by spectrophotometry upon reaching an absorbance between 0.08–0.1 at a wavelength of 625 nm; then a 1:200 dilution in MHB was performed to obtain a final concentration of 5x10^5 CFU/mL. The diluted bacterial suspension was added to the 96-well plate containing the serially diluted peptides. The final volume of 200 μL per well consisted of 100 μl of the compound and 100 μL of diluted bacteria suspension. Negative and positive growth controls were performed by adding only MHB or E. coli O157: H7 with MHB to the wells, respectively. At the end of the incubation time, MIC was determined as the lowest compound concentration at which no bacterial growth was observed.

[2] = tested on: E. coli O157: H7 clinical isolate (AC188); assay: microbe, parasite or virus in culture; format: cell-based, Escherichia coli O157: H7; details: for SI (selectivity index) E. coli O157: H7 AC188: ratio CC50 in VERO cells / MIC in AC188, maximum evaluated concentration used where CC50 not determined
Experimental: as §1

[3] = tested on: E. coli O157: H7 (ATCC 43888); assay: microbe, parasite or virus in culture; format: cell-based, Escherichia coli O157: H7
Experimental: (§2) MBC was determined as described in the M26-A protocol of the CLSI, 1999 [13]. […] Blood agar cultures were incubated at 35 ± 2°C for 18–24 hours, and the number of CFU was estimated.

[4] = tested on: E. coli O157: H7 clinical isolate (AC188); assay: microbe, parasite or virus in culture; format: cell-based, Escherichia coli O157: H7
Experimental: as §2

VERO cells (ATCC CCL-81) = assay: Cytotoxicity, MTT; format: cell-based; details: 24 h exposure, 595 nm, mean ± S.D., triplicate in two independent experiments
Experimental: VERO cells at a concentration of 3x10^4 cells/mL were plated in 96 flat-bottom wells and incubated for 24 hours at 37°C in a 5% CO2 atmosphere. Subsequently, the cells were exposed to 1:2 serial dilutions of Ib-M peptides in the range from 400 to 1.6 μM and the reference antibiotics between 3200 and 1.6 μM. Control cells were maintained without peptides or reference antibiotics. After 24 hours of incubation, VERO cells viability was determined using the MTT (3- (4,5-dimethiazol-2-yl) -2,5-diphenyltetrazole bromide) colorimetric technique (Mosmann, 1983). To do so, 20 μL/well of MTT was added at a concentration of 5 mg/mL and incubated for 4 hours. After that time, the culture medium was removed from the wells, and 100 μL of dimethylsulfoxide was added to solubilize the formazan crystals. Absorbance was determined by spectrophotometry using a wavelength of 595 nm.
The 50% cytotoxic concentrations (CC50) were calculated by sigmoid regression analysis from the inhibition percentages using the XLFit program (^©2019 IDBS). The Selectivity Index (SI) was calculated as the ratio between CC50 in VERO cells and the MICs in E. coli O157: H7 [17]. For those compounds whose CC50 could not be determined, the maximum evaluated concentration was used to calculate the respective SI.

[5] = tested on: E. coli O157: H7 (ATCC 43888); format: cell-based, Escherichia coli O157: H7; details: lag phase, 0.5xMIC, at 24 hour, turbidity at 595 nm
Experimental: The kinetics of cell growth of E. coli O157: H7 in the presence of the peptides were followed during 24 hours. The tests were performed with the reference strain ATCC 43888, and the antibacterial activity of the compounds was evaluated in the latency phase (lag phase) and the logarithmic phase (log phase).
For the lag phase, E. coli O157: H7 at 5x10^5 CFU/mL with MHB in 96-well plate was treated with Ib-M peptides at a concentrations of 0.5xMIC, 1xMIC, 2xMIC in a final volume of 200 μL/well for 24 hours at 37°C. The turbidity was determined spectrophotometrically at 595 nm for samples taken at 0, 2, 4, 6, 8, 10, 12 and 24 hours.

E. coli = tested on: E. coli; set-up: method as in PMID 29671805, PMID 19952307; details: in vitro activity reported against E. coli; cited from earlier work
[6] = strain ATCC 43888, MHB, 5x10^5 CFU/mL, mean ± S.D., triplicate in two independent experiments
[7] = clinical isolate AC188, MHB, 5x10^5 CFU/mL, mean ± S.D., triplicate in two independent experiments
[8] = strain ATCC 43888, colony count <= 10 on blood agar, mean ± S.D., triplicate in two independent experiments
[9] = clinical isolate AC188, colony count <= 10 on blood agar, mean ± S.D., triplicate in two independent experiments

| Molecule | MIC ([1]; Escherichia coli, ATCC43888) [µM] | SI (selectivity index) E. coli O157: H7 ATCC 43888 [1] | MIC ([2]; Escherichia coli) [µM] | SI (selectivity index) E. coli O157: H7 AC188 [2] | MBC ([3]; Escherichia coli, ATCC43888) [µM] | MBC ([4]; Escherichia coli) [µM] | CC50 VERO Cells (VERO cells (ATCC CCL-81)) | MIC [1, 6] [µM] | MIC [2, 7] [µM] | MBC [3, 8] [µM] | MBC [4, 9] [µM] | percentage of E. coli growth inhibition [5] | MIC (E. coli) [µM] |
| --- | --- | --- | --- | --- | --- | --- | --- | --- | --- | --- | --- | --- | --- |
| CNC(C)C1CCC(N)C(OC2C(N)CC(N)C(OC3OCC(C)(O)C(NC)C3O)C2O)O1 (stereo not shown) [GNT, Gentamicin, reference compound] | 1.8 ± 0.6 (≈ 0.86 µg/mL) | >1777.8 | 2.3 ± 0.9 (≈ 1.1 µg/mL) | >1391.3 | 4.7 ± 1.7 (≈ 2.24 µg/mL) | 4.2 ± 1.6 (≈ 2.01 µg/mL) | > 3200 µM and >3200 ± 0 µM |  |  |  |  |  |  |
| [H]/N=C(/N)N[C@H]1[C@H](O)[C@@H](O)[C@H](O[C@@H]2O[C@@H](C)[C@](O)(C=O)[C@H]2O[C@@H]2O[C@@H](CO)[C@H](O)[C@@H](O)[C@@H]2NC)[C@@H](N/C(N)=N\[H])[C@@H]1O [STP, Streptomycin, reference compound] | 9.4 (≈ 5.47 µg/mL) | >340.4 | 66.7 (≈ 38.8 µg/mL) | >48 | 11.5 (≈ 6.69 µg/mL) | 108 (≈ 63 µg/mL) | >3200 ± 0 µM | 9.4 ± 3.4 (≈ 5.47 µg/mL) | 66.7 ± 25.8 (≈ 38.8 µg/mL) | 11.5 ± 2.6 (≈ 6.69 µg/mL) | 108.3 ± 49.2 (≈ 63 µg/mL) |  |  |
| EWGRRMMGRGPGRRMMRRWW-NH2 [Ib-M4] |  |  |  |  |  |  | > 400 ± 0.0 µM | 12.5 ± 0.0 | 6.3 ± 0.0 | 22.9 ± 5.1 | 15.6 ± 10.3 |  |  |
| EWGRRMMGRGPGRRMMRWWR-NH2 [Ib-M1] |  |  |  |  |  |  | 395.2 ± 18.3 µM | 4.7 ± 1.7 | 1.6 ± 0.0 | 6.3 ± 0.0 | 3.7 ± 1.3 | higher than 63% |  |
| EWGRRMMGWGRGRRMMRRWW-NH2 [Ib-M6] |  |  |  |  |  |  | 310.9 ± 4.4 µM | 9.4 ± 3.4 | 4.7 ± 1.7 | 11.5 ± 7.3 | 10.4 ± 3.2 |  |  |
| EWGRRMMGWRPGRRMMRRWW-NH2 [Ib-M5] |  |  |  |  |  |  | 315.3 ± 49.1 µM | 8.3 ± 3.2 | 4.7 ± 1.7 | 15.6 ± 7.7 | 7.3 ± 2.6 |  |  |
| EWGRRMMGWRPGRRMMRWWR-NH2 [Ib-M2] |  |  |  |  |  |  | 197.5 ± 2.4 µM | 4.7 ± 1.7 | 3.7 ± 1.28 | 6.8 ± 3.1 | 4.2 ± 1.6 |  |  |
| lactoferricin |  |  |  |  |  |  |  |  |  |  |  |  | 2 |
| magainin 2 |  |  |  |  |  |  |  |  |  |  |  |  | 8 |
